Paper PMC7395068, “The evolution of strategies to minimise the risk of human drug-induced liver injury (DILI) in drug discovery and development” (Archives of Toxicology, 2020)
Where two headings read alike, the source gives them in different places.

Columns and labels:
[1] = Plasma free fraction (fu) and unbound Cmax (Cmax,u); type: in vitro ADME, human; settings: unbound plasma Cmax
[2] = tested on: THLE or HepG2 cells, isolated mitochondria, BSEP; settings: cited from earlier work
PHH spheroids = settings: In vitro Assay; ref Vorrink 2018; cited from earlier work
[3] = tested on: HepG2 C3A spheroid, BSEP, Glu/Gal in HepG2 cells, bioactivation; settings: cited from earlier work
[4] = read-out: Human plasma Cmax; total plasma Cmax.tot, median of 9 literature references; cited from earlier work
[5] = plasma free fraction; cited from earlier work
[6] = tested on: THLE-Null and THLE-3A4 cells; settings: In vitro Assay; ref Gustafsson 2014; cited from earlier work
rBsep = settings: In vitro Assay; ref Dawson 2012; cited from earlier work
hLiMTs = assay: Combined HCI (HCS) and cellular ATP 3D assay in hLiMTs; settings: for AC50 / minimal effective concentration: Homo sapiens
HepaRG spheroids = assay: Combined HCI (HCS) and cellular ATP 3D assay in HepaRG spheroids; settings: for AC50 / minimal effective concentration: Homo sapiens
[7] = Modeled in vitro assays (cytotoxicity, mitochondrial dysfunction, BSEP), ref Aleo et al. 2019
[8] = Microtissue model structural based (HCI), combined HCS and ATP, MEC < 25 × Cmax.tot cut-off

- Human plasma Cmax,u [1]: 73 nM
- hLiMTs <25x Avg Cmax ATP (hLiMTs; hLiMTs, ATP endpoint, cut-off <25x Avg Cmax): +ve
- hLiMTs <100x Avg Cmaxu ATP (hLiMTs; hLiMTs, ATP endpoint, cut-off <100x Avg Cmaxu): -ve
- hLiMTs <25x Avg Cmax HCS (hLiMTs; hLiMTs, HCS endpoints, cut-off <25x Avg Cmax): +ve
- hLiMTs <100x Avg Cmaxu HCS (hLiMTs; hLiMTs, HCS endpoints, cut-off <100x Avg Cmaxu): +ve (<100x Avg Cmaxu)
- hLiMTs <25x Avg Cmax All (hLiMTs; hLiMTs, all endpoints (ATP and HCS), cut-off <25x Avg Cmax): +ve
- hLiMTs Cmax max All (hLiMTs; hLiMTs, all endpoints, Cmax max used): +ve
- hLiMTs Cmax min All (hLiMTs; hLiMTs, all endpoints, Cmax min used): +ve
- hLiMTs <10 uM All (hLiMTs; hLiMTs, all endpoints, cut-off <10 uM): +ve (<10 uM)
- hLiMTs <100x Avg Cmaxu All (hLiMTs; hLiMTs, all endpoints, cut-off <100x Avg Cmaxu): +ve (<100x Avg Cmaxu)
- HepaRG <25x Avg Cmax ATP (HepaRG spheroids; HepaRG, ATP endpoint, cut-off <25x Avg Cmax): +ve
- HepaRG <100x Avg Cmaxu ATP (HepaRG spheroids; HepaRG, ATP endpoint, cut-off <100x Avg Cmaxu): -ve
- HepaRG <25x Avg Cmax HCS (HepaRG spheroids; HepaRG, HCS endpoints, cut-off <25x Avg Cmax): +ve
- HepaRG <100x Avg Cmaxu HCS (HepaRG spheroids; HepaRG, HCS endpoints, cut-off <100x Avg Cmaxu): +ve (<100x Avg Cmaxu)
- HepaRG <25x Avg Cmax All (HepaRG spheroids; HepaRG, all endpoints (ATP and HCS), cut-off <25x Avg Cmax): +ve
- HepaRG Cmax max All (HepaRG spheroids; HepaRG, all endpoints, Cmax max used): +ve
- HepaRG Cmax min All (HepaRG spheroids; HepaRG, all endpoints, Cmax min used): +ve
- HepaRG <10 uM All (HepaRG spheroids; HepaRG, all endpoints, cut-off <10 uM): +ve (<10 uM)
- HepaRG <100x Avg Cmaxu All (HepaRG spheroids; HepaRG, all endpoints, cut-off <100x Avg Cmaxu): +ve (<100x Avg Cmaxu)
SMILES: CN1CCN(C2=Nc3cc(Cl)ccc3Nc3ccccc32)CC1 [clozapine]
- Partition Hybrid HRM Score ([2]; In vitro Assay, ref Aleo 2019): +VE
- Ro2 Hybrid HRM Score ([2]; In vitro Assay, ref Aleo 2019): +VE
- Partition Hybrid HRM Score ≥4, Aleo (2019) [2, 7]: +VE (Partition Hybrid HRM Score ≥4)
- Partition Hybrid HRM Score ≥8, Aleo (2019) [2, 7]: -VE
- Rule of Two hybrid HRM Score ≥3, Aleo (2019) [2, 7]: +VE (Rule of Two hybrid HRM Score ≥3)
- Rule of Two hybrid HRM Score ≥8, Aleo (2019) [2, 7]: -VE
- hLiMTs ATP <20 x Cmax (PHH spheroids): +VE (IC20 < 20 × Cmax.tot cut-off)
- Bayesian Machine Learning DILI prediction, Williams (2019) ([3]; Bayesian modeling, ref Williams et al. 2019): +VE
- Bayesian Machine Learning ([3]; In vitro Assay, ref Williams 2019): +VE
- Cmax [4]: 2450 nM
- fu [5]: 0.030
- THLE-Null [6]: -VE
- Inhibition of rBsep cutoff<1& cmax u>.2 (rBsep): -VE
- Inhibition of rBsep cutoff<3 (rBsep): +VE
- AC50 (hLiMTs; read-out: ATP endpoint AC50): 14 µM
- minimal effective concentration (hLiMTs; read-out: ATP endpoint MEC): 10.5 µM
- AC50 (hLiMTs; read-out: HCS endpoint AC50): 15.2 µM
- minimal effective concentration (hLiMTs; read-out: HCS endpoint MEC): 5.61 µM
- DILI prediction hLiMTs (HCS-MEC) (hLiMTs; [8]): +VE (MEC < 25 × Cmax.tot cut-off)
- AC50 (HepaRG spheroids; HepaRG, read-out: ATP endpoint AC50): 16.6 µM
- minimal effective concentration (HepaRG spheroids; HepaRG, read-out: ATP endpoint MEC): 13.1 µM
- AC50 (HepaRG spheroids; HepaRG, read-out: HCS endpoint AC50): 13.2 µM
- minimal effective concentration (HepaRG spheroids; HepaRG, read-out: HCS endpoint MEC): 4.66 µM
- DILI prediction HepaRG spheroids (HCS-MEC) (HepaRG spheroids; [8]): +VE (MEC < 25 × Cmax.tot cut-off)
